Experiments:
[1] = test system: genotype 1a-H77 subgenomic replicon cell line; experiment: HCV Polymerase Replicon Assay (genotype 1a-H77); assay type: cell-based; settings: Hepatitis C virus, 72 h; 1a-H77 replicon, luciferase reporter, 5% FBS, three days
[2] = test system: genotype 1b-Con1 subgenomic replicon cell line; experiment: HCV Polymerase Replicon Assay (genotype 1b-Con1); assay type: cell-based; settings: Hepatitis C virus, 72 h; 1b-Con1 replicon, luciferase reporter, 5% FBS, three days
[3] = target: T1, HCV polymerase 1B (Δ21 NS5B, BK) (Hepatitis C virus genotype 1b, UniProt P26663); experiment: HCV Polymerase Inhibition Assay (1b); assay type: biochemical
T1 construct: 20 to 50 nM Δ21 NS5B
T1 sequence (P26663 2420-2989, stated change not applied): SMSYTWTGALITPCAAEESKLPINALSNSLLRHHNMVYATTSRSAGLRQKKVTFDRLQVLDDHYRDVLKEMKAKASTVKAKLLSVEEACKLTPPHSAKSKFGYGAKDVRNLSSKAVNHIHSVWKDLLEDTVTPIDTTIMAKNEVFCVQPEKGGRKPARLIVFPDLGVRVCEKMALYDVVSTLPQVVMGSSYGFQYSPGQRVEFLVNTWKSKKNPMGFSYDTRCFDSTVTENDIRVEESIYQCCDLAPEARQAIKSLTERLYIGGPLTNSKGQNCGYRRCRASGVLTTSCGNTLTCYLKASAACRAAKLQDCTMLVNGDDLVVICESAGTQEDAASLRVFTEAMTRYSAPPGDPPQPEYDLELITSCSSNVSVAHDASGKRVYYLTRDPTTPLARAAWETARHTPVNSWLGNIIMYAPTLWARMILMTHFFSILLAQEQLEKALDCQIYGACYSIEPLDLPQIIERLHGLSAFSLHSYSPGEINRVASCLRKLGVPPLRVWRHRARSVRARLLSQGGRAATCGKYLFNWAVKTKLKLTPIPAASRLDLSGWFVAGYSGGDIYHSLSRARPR
Method: (§1) The reaction was initiated by the addition of 20 μM CTP, 20 μM ATP, 1 μM ^3H-UTP (10 mCi/μmol), 5 nM template RNA and 0.1 U/μL RNase inhibitor (RNasin, Promega), and allowed to proceed for 2 to 4 hours at room temperature. Reaction volume was 50 μL. The reaction was terminated by the addition of 1 volume of 4 mM spermine in 10 mM Tris-Cl pH 8.0, 1 mM EDTA. After incubation for at least 15 minutes at room temperature, the precipitated RNA was captured by filtering through a GF/B filter (Millipore) in a 96 well format. The filter plate was washed three times with 200 μL each of 2 mM spermine, 10 mM Tris-Cl pH 8.0, 1 mM EDTA, and 2 times with ethanol. After air-drying, 30 μL of Microscint 20 scintillation cocktail (Packard) was added to each well, and the retained cpm were determined by scintillation counting. […] Retained cpm were plotted vs. inhibitor concentration and fit to equation 1 using non-linear regression (ref. 1) to obtain the IC50 values: Retained cpm=A[sqrt{(IC50+It−Et)^2+4*IC50*Et}−(IC50+It−Et)] (equation 1) where A=Vmax[S]/2(Km+[S]); It=total inhibitor concentration and Et=total active concentration of enzyme.
(§2) Ref. Morrison, J. F. and S. R. Stone. 1985. Approaches to the study and analysis of the inhibition of enzymes by slow- and tight-binding inhibitors. Comments Mol. Cell. Biophys. 2: 347-368.
(§3) The sequence of the template RNA used was: 5′-[…] […] […] […] […] […] […] […] […] […] […] […] […] […] […] […] […]-3′ (SEQ ID NO: 1).

[4] = target: T2, HCV polymerase 1A (Δ21 NS5B, H77) (Hepatitis C virus genotype 1a, UniProt P27958); experiment: HCV Polymerase Inhibition Assay (1a); assay type: biochemical
T2 construct: 20 to 50 nM Δ21 NS5B
T2 sequence (P27958 2421-2990, stated change not applied): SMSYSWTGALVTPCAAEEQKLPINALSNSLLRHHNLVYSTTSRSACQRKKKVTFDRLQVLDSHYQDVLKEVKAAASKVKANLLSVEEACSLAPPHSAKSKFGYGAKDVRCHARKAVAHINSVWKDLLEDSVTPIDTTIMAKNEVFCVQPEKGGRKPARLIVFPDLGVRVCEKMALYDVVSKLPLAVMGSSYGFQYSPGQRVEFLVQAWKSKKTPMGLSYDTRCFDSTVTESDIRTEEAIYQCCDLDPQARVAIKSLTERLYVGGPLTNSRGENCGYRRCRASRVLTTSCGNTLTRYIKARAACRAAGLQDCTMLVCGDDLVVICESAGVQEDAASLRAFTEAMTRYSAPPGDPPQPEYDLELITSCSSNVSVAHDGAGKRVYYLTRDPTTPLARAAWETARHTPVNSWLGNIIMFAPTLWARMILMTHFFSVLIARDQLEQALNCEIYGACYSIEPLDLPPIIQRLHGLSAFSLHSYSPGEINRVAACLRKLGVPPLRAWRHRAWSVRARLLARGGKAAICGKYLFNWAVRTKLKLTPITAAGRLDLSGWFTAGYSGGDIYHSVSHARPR
Method: as §1, §2, §3

| SMILES | EC50 [1] [nM] | EC50 [2] [nM] | IC50 [3] [nM] | IC50 [4] [nM] |
| --- | --- | --- | --- | --- |
| COc1c(C(C)(C)C)cc(-n2ccc(=O)[nH]c2=O)c2cccnc12 [Compound 1, 1-(7-tert-butyl-8-methoxyquinolin-5-yl)pyrimidine-2,4(1H,3H)-dione] | 100 to 1000 | ≤ 10 | 10 to 100 | 10 to 100 |
| COc1c(C(C)(C)C)cc(-n2ccc(=O)[nH]c2=O)c2ccc(-c3ccc(NS(C)(=O)=O)cc3)nc12 [Compound 2, N-(4-(7-tert-butyl-5-(2,4-dioxo-3,4-dihydropyrimidin-1(2H)-yl)-8-methoxyquinolin-2-yl)phenyl)methanesulfonamide] |  |  | > 1000 | > 1000 |
| CC1(C)COc2c(-c3ccc4cc(NS(C)(=O)=O)ccc4c3)cc(-n3ccc(=O)[nH]c3=O)cc21 [Compound 3, N-(6-(5-(2,4-dioxo-3,4-dihydropyrimidin-1(2H)-yl)-3,3-dimethyl-2,3-dihydrobenzofuran-7-yl)naphthalen-2-yl)methanesulfonamide] | 100 to 1000 | 10 to 100 | 10 to 100 | < 10 |
| CC1(C)CC(=O)Oc2c1cc(N1CCC(=O)NC1=O)c1ccccc21 [Compound 4, 1-(4,4-dimethyl-2-oxo-3,4-dihydro-2H-benzo[h]chromen-6-yl)dihydropyrimidine-2,4(1H,3H)-dione] |  |  | 100 to 1000 | > 1000 |
| CC(C)(C)c1cc(-n2ccc(=O)[nH]c2=O)cc2c(Nc3ccc(NS(C)(=O)=O)cc3)ncnc12 [Compound 5, N-(4-(8-tert-butyl-6-(2,4-dioxo-3,4-dihydropyrimidin-1(2H)-yl)quinazolin-4-ylamino)phenyl)methanesulfonamide] | > 1000 | 100 to 1000 | 10 to 100 | 10 to 100 |
| CC(C)(C)c1cc(N2CCC(=O)NC2=O)cc2c(Nc3ccc(NS(C)(=O)=O)cc3)ncnc12 [Compound 6, N-(4-(8-tert-butyl-6-(2,4-dioxotetrahydropyrimidin-1(2H)-yl)quinazolin-4-ylamino)phenyl)methanesulfonamide] | 100 to 1000 | 100 to 1000 | 10 to 100 | 10 to 100 |
| CC(C)(C)c1cc(-n2ccc(=O)[nH]c2=O)cc2c(Nc3cc(CNS(C)(=O)=O)cs3)ncnc12 [Compound 7, N-((5-(8-tert-butyl-6-(2,4-dioxo-3,4-dihydropyrimidin-1(2H)-yl)quinazolin-4-ylamino)thiophen-3-yl)methyl)methanesulfonamide] | > 1000 | 100 to 1000 | < 10 | 10 to 100 |
